Assay results from US8450306B2, “Bradykinin B1-receptor antagonists” (Boehringer Ingelheim International GmbH, priority 2007, dated 2013).
pKi: −log10 of the molar value.

Biological target: T1, hBK1 receptor (Homo sapiens, UniProt P46663)
T1 construct: expressed in transfected cells; host or cells: CHO cells (membrane homogenate)
T1 sequence (P46663 1-353): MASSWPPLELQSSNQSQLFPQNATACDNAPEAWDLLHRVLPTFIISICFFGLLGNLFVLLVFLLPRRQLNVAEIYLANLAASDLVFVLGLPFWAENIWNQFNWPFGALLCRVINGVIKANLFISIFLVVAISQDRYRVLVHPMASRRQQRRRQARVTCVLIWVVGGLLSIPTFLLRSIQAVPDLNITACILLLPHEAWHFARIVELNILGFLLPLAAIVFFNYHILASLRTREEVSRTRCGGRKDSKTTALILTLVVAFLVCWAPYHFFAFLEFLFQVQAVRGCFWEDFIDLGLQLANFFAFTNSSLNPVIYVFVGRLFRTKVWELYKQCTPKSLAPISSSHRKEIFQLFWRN
Experiment: hBK1 receptor binding
Settings: membranes of CHO cells expressing the hBK1 receptor; radioligand 0.5 to 1.0 nM kallidin (DesArg10, Leu9), [3,4-prolyl-3,43H(N)]; 60 minutes, room temperature
Method: Description of the Method of hBK1 Receptor Binding
CHO cells expressing the hBK1 receptor are cultivated in Dulbecco's modified medium. The medium from confluent cultures is removed and the cells are washed with PBS buffer, scraped off and isolated by centrifugation. The cells are then homogenized in suspension and the homogenate is centrifuged and resuspended. The protein content is determined and the membrane preparation obtained in this manner is then frozen at −80° C.
After thawing, 200 μl of the homogenate (50 to 100 μg of proteins/assay) are incubated at room temperature with 0.5 to 1.0 nM of kallidin (DesArg10, Leu9), [3,4-prolyl-3,43H(N)] and increasing concentrations of the test substance in a total volume of 250 μl for 60 minutes. The incubation is terminated by rapid filtration through GF/B glass fibre filters which had been pretreated with polyethyleneimine (0.3%). The protein-bound radioactivity is measured in a TopCount NXT. Non-specific binding is defined as radioactivity bound in the presence of 1.0 μM of kallidin (DesArg10, Leu9), [3,4-prolyl-3,43H(N)]. The concentration/binding curve is analysed using a computer-assisted nonlinear curve fitting. The K which corresponds to the test substance is determined using the data obtained in this manner. […]

pKi: 8.98
SMILES: COc1cc(C)c(S(=O)(=O)N(C)CCOCC(=O)N(C)[C@@H]2CCN(C3CCN(C)CC3)C2)c(C)c1 [(394)]
